Assay results: patent EP3689885B1, “HIGHLY EFFECTIVE CONCENTRATES WITH PPDA AND THEIR USE IN STABILIZING MATERIALS IN ANIMAL EXCREMENTS” (SKW STICKSTOFFWERKE PIESTERITZ GmbH, priority 2019, dated 2020)
“Also recorded” adds a separate entry of the source.

How the values were obtained:
[1] = Stability of the active ingredient (PPDA) in the solution, HPLC; assay type: physicochemical; settings: room temperature, 483840 min
Text: (§1) PPDA wurde bis zur maximalen Löslichkeit in die Lösungsmittel/ Lösungsmittelgemische eingebracht, die Lösungen wurden bei Raumtemperatur gelagert und der Wirkstoffgehalt (PPDA) nach 48 Wochen mittels HPLC überprüft.

[2] = Maximum solubility of PPDA in solvents / solvent mixtures; assay type: physicochemical
Text: as §1

Urease = settings: literature (Wenzel et al. 1983; Leinker 2007, laboratory screening); cited from earlier work

SMILES: NP(N)(=O)Oc1ccccc1 [PPDA, Phenylphosphorsäurediamid]
- Wirkstoffwiederfindung nach 48 Wochen ([1]; saturated solution in DMSO): 81%
- Wirkstoffwiederfindung nach 48 Wochen ([1]; saturated solution in DMSO/Diethylenglycolmonomethylether, Anteil LM 1 20 %): 83%
- Wirkstoffwiederfindung nach 48 Wochen ([1]; saturated solution in DMSO/Diethylenglycolmonomethylether, Anteil LM 1 40 %): 85%
- Wirkstoffwiederfindung nach 48 Wochen ([1]; saturated solution in DMSO/Diethylenglycolmonomethylether, Anteil LM 1 60 %): 93%
- Wirkstoffwiederfindung nach 48 Wochen ([1]; saturated solution in DMSO/Diethylenglycolmonomethylether, Anteil LM 1 80 %): 80%
- Wirkstoffwiederfindung nach 48 Wochen ([1]; saturated solution in DMSO/Glycerinformal, Anteil LM 1 20 %): 82%
- Wirkstoffwiederfindung nach 48 Wochen ([1]; saturated solution in DMSO/Glycerinformal, Anteil LM 1 40 %): 91%
- Wirkstoffwiederfindung nach 48 Wochen ([1]; saturated solution in DMSO/Glycerinformal, Anteil LM 1 60 %): 92%
- Wirkstoffwiederfindung nach 48 Wochen ([1]; saturated solution in DMSO/Glycerinformal, Anteil LM 1 80 %): 86%
- Wirkstoffwiederfindung nach 48 Wochen ([1]; saturated solution in DMSO/Propylenglycolmonomethyl ether, Anteil LM 1 20 %): 100%
- Wirkstoffwiederfindung nach 48 Wochen ([1]; saturated solution in DMSO/Propylenglycolmonomethyl ether, Anteil LM 1 40 %): 100%
- Wirkstoffwiederfindung nach 48 Wochen ([1]; saturated solution in DMSO/Propylenglycolmonomethyl ether, Anteil LM 1 60 %): 95%
- Wirkstoffwiederfindung nach 48 Wochen ([1]; saturated solution in DMSO/Propylenglycolmonomethyl ether, Anteil LM 1 80 %): 89%
- Wirkstoffwiederfindung nach 48 Wochen ([1]; saturated solution in DMSO/Pyrrolidon, Anteil LM 1 20 %): 79%
- Wirkstoffwiederfindung nach 48 Wochen ([1]; saturated solution in DMSO/Pyrrolidon, Anteil LM 1 40 %): 88%
- Wirkstoffwiederfindung nach 48 Wochen ([1]; saturated solution in DMSO/Pyrrolidon, Anteil LM 1 60 %): 93%
- Wirkstoffwiederfindung nach 48 Wochen ([1]; saturated solution in DMSO/Pyrrolidon, Anteil LM 1 80 %): 92%
- Wirkstoffwiederfindung nach 48 Wochen ([1]; saturated solution in Diethylenenglycolmonomethylether / Glycerinformal, Anteil LM 1 20 %): 85%
- Wirkstoffwiederfindung nach 48 Wochen ([1]; saturated solution in Diethylenenglycolmonomethylether / Glycerinformal, Anteil LM 1 40 %): 89%
- Wirkstoffwiederfindung nach 48 Wochen ([1]; saturated solution in Diethylenenglycolmonomethylether / Glycerinformal, Anteil LM 1 60 %): 72%
- Wirkstoffwiederfindung nach 48 Wochen ([1]; saturated solution in Diethylenenglycolmonomethylether / Glycerinformal, Anteil LM 1 80 %): 73%
- Wirkstoffwiederfindung nach 48 Wochen ([1]; saturated solution in Propylenglycol monomethylether / Glycerinformal, Anteil LM 1 20 %): 93%
- Wirkstoffwiederfindung nach 48 Wochen ([1]; saturated solution in Propylenglycol monomethylether / Glycerinformal, Anteil LM 1 40 %): 100%
- Wirkstoffwiederfindung nach 48 Wochen ([1]; saturated solution in Propylenglycol monomethylether / Glycerinformal, Anteil LM 1 60 %): 100%
- Wirkstoffwiederfindung nach 48 Wochen ([1]; saturated solution in Propylenglycol monomethylether / Glycerinformal, Anteil LM 1 80 %): 100%
- Wirkstoffwiederfindung nach 48 Wochen ([1]; saturated solution in Propylenglycol monomethylether / Pyrrolidon, Anteil LM 1 40 %): 100%
- Wirkstoffwiederfindung nach 48 Wochen ([1]; saturated solution in Propylenglycol monomethylether / Pyrrolidon, Anteil LM 1 60 %): 100%
- Wirkstoffwiederfindung nach 48 Wochen ([1]; saturated solution in Propylenglycol monomethylether / Pyrrolidon, Anteil LM 1 80 %): 100%
- Wirkstoffwiederfindung nach 48 Wochen ([1]; saturated solution in Pyrrolidon / Glycerinformal, Anteil LM 1 20 %): 72%
- Wirkstoffwiederfindung nach 48 Wochen ([1]; saturated solution in Tetraethylenglycol / Pyrrolidon, Anteil LM 1 40 %): 87%
- Wirkstoffwiederfindung nach 48 Wochen ([1]; saturated solution in Tetraethylenglycol / Pyrrolidon, Anteil LM 1 60 %): 76%
- Löslichkeit ([2]; DMSO/Diethylenglycolmonomethylether, Anteil LM 1 20 %, room temperature): 3,0%
- Löslichkeit ([2]; DMSO/Diethylenglycolmonomethylether, Anteil LM 1 40 %, room temperature): 4,4%
- Löslichkeit ([2]; DMSO/Diethylenglycolmonomethylether, Anteil LM 1 60 %, room temperature): 7,8%
- Löslichkeit ([2]; DMSO/Diethylenglycolmonomethylether, Anteil LM 1 80 %, room temperature): 11,5%
- Löslichkeit ([2]; DMSO/Glycerinformal, Anteil LM 1 20 %, room temperature): 4,1%
- Löslichkeit ([2]; DMSO/Glycerinformal, Anteil LM 1 40 %, room temperature): 4,9%
- Löslichkeit ([2]; DMSO/Glycerinformal, Anteil LM 1 60 %, room temperature): 6,7%
- Löslichkeit ([2]; DMSO/Glycerinformal, Anteil LM 1 80 %, room temperature): 10,3%
- Löslichkeit ([2]; DMSO/Propylenglycolmonomethyl ether, Anteil LM 1 20 %, room temperature): 2,2%
- Löslichkeit ([2]; DMSO/Propylenglycolmonomethyl ether, Anteil LM 1 40 %, room temperature): 3,5%
- Löslichkeit ([2]; DMSO/Propylenglycolmonomethyl ether, Anteil LM 1 60 %, room temperature): 6,2%
- Löslichkeit ([2]; DMSO/Propylenglycolmonomethyl ether, Anteil LM 1 80 %, room temperature): 10,7%
- Löslichkeit ([2]; DMSO/Pyrrolidon, Anteil LM 1 20 %, room temperature): 6,0%
- Löslichkeit ([2]; DMSO/Pyrrolidon, Anteil LM 1 40 %, room temperature): 8,4%
- Löslichkeit ([2]; DMSO/Pyrrolidon, Anteil LM 1 60 %, room temperature): 9,9%
- Löslichkeit ([2]; DMSO/Pyrrolidon, Anteil LM 1 80 %, room temperature): 12,0%
- Löslichkeit ([2]; DMSO, room temperature): 11,5%
- Löslichkeit ([2]; Diethylenenglycolmonomethylether / Glycerinformal, Anteil LM 1 20 %, room temperature): 3,9%
- Löslichkeit ([2]; Diethylenenglycolmonomethylether / Glycerinformal, Anteil LM 1 40 %, room temperature): 3,3%
- Löslichkeit ([2]; Diethylenenglycolmonomethylether / Glycerinformal, Anteil LM 1 60 %, room temperature): 3,1%
- Löslichkeit ([2]; Diethylenenglycolmonomethylether / Glycerinformal, Anteil LM 1 80 %, room temperature): 2,6%
- Löslichkeit ([2]; Propylenglycol monomethylether / Glycerinformal, Anteil LM 1 20 %, room temperature): 2,8%
- Löslichkeit ([2]; Propylenglycol monomethylether / Glycerinformal, Anteil LM 1 40 %, room temperature): 2,7%
- Löslichkeit ([2]; Propylenglycol monomethylether / Glycerinformal, Anteil LM 1 60 %, room temperature): 2,2%
- Löslichkeit ([2]; Propylenglycol monomethylether / Glycerinformal, Anteil LM 1 80 %, room temperature): 1,5%
- Löslichkeit ([2]; Propylenglycol monomethylether / Pyrrolidon, Anteil LM 1 40 %, room temperature): 3,7%
- Löslichkeit ([2]; Propylenglycol monomethylether / Pyrrolidon, Anteil LM 1 60 %, room temperature): 2,9%
- Löslichkeit ([2]; Propylenglycol monomethylether / Pyrrolidon, Anteil LM 1 80 %, room temperature): 1,1%
- Löslichkeit ([2]; Pyrrolidon / Glycerinformal, Anteil LM 1 20 %, room temperature): 4,3%
- Löslichkeit ([2]; Tetraethylenglycol / Pyrrolidon, Anteil LM 1 40 %, room temperature): 5,5%
- Löslichkeit ([2]; Tetraethylenglycol / Pyrrolidon, Anteil LM 1 60 %, room temperature): 3,6%
- Löslichkeit ([2]; in most solvents generally known as good solvents for phosphoric acid amides (not named)): < 1%
- Wirksamkeit als Urease-Inhibitor (Urease): mittlerer Wirkungsstärke; also recorded: nur mittlere Wirksamkeit
